In patent publication US20110065628A1, “Medication Combinations for the Treatment of Alcoholism and Drug Addiction” (UNIVERSITY OF VIRGINIA PATENT FOUNDATION, priority 2007, published 2011):
Structures can show the parent of a compound that is named as a salt.

Columns and labels:
[1] = tested on: patients with alcohol and nicotine dependence; experiment: Open-label 8 week naltrexone study with coping skills therapy; assay type: in vivo, human; details: naltrexone 50 mg/day, 8 weeks
Excerpt: In an open-label study, we evaluated the efficacy of naltrexone, an opioid antagonist, in the treatment of alcohol dependence. Since up to 92% of alcoholics are also co-dependent on nicotine, our cohort included dually dependent individuals. […] From a local newspaper advertisement, we enrolled 10 subjects (6 males and 4 females; aged 40±2.56 years) into the study. All patients met DSM III-R criteria for both alcohol and nicotine dependence. Patients were instructed that the goal of treatment was abstinence by the end of the study. Patients received naltrexone (50 mg/day) in unmarked capsules with a riboflavin tracer for an 8 week period. Weekly attendance included combined coping skills therapy for alcohol and nicotine dependence, nursing visits, and completion of rating scales. […] Drop-out rate at 30% was similar to that observed in medication trials for alcoholism. This study supports the clinical evidence that naltrexone is a useful adjunct to Cognitive Behavioral Therapy for the treatment of alcoholism. Naltrexone's effects on cigarette smoking appears small but may warrant further exploration.

[2] = tested on: alcohol consumption (8% w/v) in rhesus monkeys; experiment: Naltrexone effect on alcohol drinking, fixed ratio schedule, 3 hour sessions; assay type: in vivo; details: increasing doses of naltrexone 0.1, 0.3, 1.0, 3.0 g/kg; three non food deprived rhesus monkeys
Method: FIG. 3 graphically illustrates the effects of Naltrexone on alcohol consumption in non-human primates (rhesus monkeys). Naltrexone was administered at 0.1 (∘), 0.3 ([…]), 1.0 (□) or 3.0 (▪) […]. The ordinate represents cumulative deliveries as percent change from baseline. The abscissa represents time in 10 minute blocks.
During these 3 hour sessions, both water and alcohol were concurrently available.

[3] = tested on: alcohol-preferring (P) rats; experiment: Combined topiramate and naltrexone on alcohol consumption; assay type: in vivo
Method: FIG. 8 graphically illustrates the combined effect of topiramate and naltrexone on alcohol consumption in alcohol-preferring (P) rats. Rats received either vehicle, topiramate at 5 mg/kg, topiramate at 10 mg/kg, naltrexone at 1/mg/kg and topiramate at 5 mg/kg, naltrexone at 1/mg/kg and topiramate at 10 mg/kg, or naltrexone at 1 mg/kg. Each data point represents the mean (±SE) of 8 rats as a change from baseline.
No significant differences were observed following vehicle injection. Data are plotted as change from baseline consumption, and each data point represents a mean (±SE) of 8 rats.

[4] = tested on: individuals in alcohol trials; details: cited from earlier work
EOA and LOA alcoholics = details: EOA compared with LOA; 1, 4, 16 μg/kg twice daily, particularly 4 μg/kg; cited from earlier work
alcoholics (EOA and LOA) = experiment: 11-week double-blind ondansetron trial with weekly Cognitive Behavioral Therapy; assay type: in vivo, human; details: for Drinks/Day / Drinks/Drinking Day: at endpoint; for Drinks/Day: placebo 3.30; for Drinks/Drinking Day: placebo 6.90
Excerpt: It was hypothesized herein that the drinking outcomes of EOA, compared with LOA, would be more improved by the selective serotonin antagonist, ondansetron. EOA differ from LOA by having greater serotonergic abnormality, an earlier age of onset, and antisocial behaviors. Thus, EOA may be especially responsive to treatment with a selective serotonergic agent.
The design was as follows: 321 alcoholics (EOA=161; LOA=160; mean age 40.6 years; 70.5% male, and 78.6% white) received one lead in week of single-blind placebo followed by 11 weeks of double-blind outpatient treatment using a 2×4 factorial design which examined age of onset (EOA vs. LOA) and medication dose (placebo, or ondansetron 1, 4, or 16 μg/kg b.i.d) combined with weekly standardized group Cognitive Behavioral Therapy. Efficacy measures were: 1) Self reported drinking (Drinks/Day, Drinks/Drinking Day, Percent Days Abstinent, and Total Days Abstinent/study week), and 2) plasma Carbohydrate Deficient Transferrin level (CDT).

[5] = tested on: alcohol-preferring (P) rats; experiment: 24-hour-access two-bottle choice alcohol consumption, topiramate, ondansetron, naltrexone; assay type: in vivo
Method: FIG. 10, comprising 5 panels—FIGS. 10A to 10E, graphically illustrates the combined effect of topiramate (10 mg/kg, IP), ondansetron (0.001 mg/kg, IP), and naltrexone (1 mg/kg, IP) on alcohol consumption in alcohol-preferring (P) rats. 10A—Topiramate alone; 10B—Ondansetron alone; 10C—Vehicle; 10D—Topiramate+Ondansetron; 10E—Topiramate+Ondansetron+Naltrexone. Data are plotted across seven consecutive sessions, which include a 3-day baseline period, the test session in which the ondansetron, topiramate, and naltrexone injection was administered, and the three sessions that followed the test session. Each data point represents a mean (±SE) of at least six rats. The ordinate represents ethanol intake in g/kg and the abscissa represents session number.
The effects of ondansetron, topiramate, and naltrexone, medications shown to be efficacious in treating alcohol-dependent humans, on measures of alcohol dependence were determined in animal models in order to determine whether these medications may produce additive effects when combined. The experiments examined their ability to modulate total consumption under a 24-hour-access two-bottle choice procedure wherein rats had unlimited access to alcohol solutions (10%) and water. […]

[6] = tested on: patients with alcoholism (DSM III-R); experiment: 12-week outpatient placebo-controlled ritanserin trial with Cognitive Behavioral Therapy; assay type: in vivo, human; details: ritanserin 2.5 mg or 5 mg, 12 weeks
Method: FIG. 5 graphically illustrates the effects of treatment with Ritanserin in conjunction with Cognitive Behavioral Therapy. The ordinate represents the mean number of drinks since the last visit and the abscissa indicates the time period of assessment in the study (in weeks). Subjects were treated with 2.5 mg Ritanserin ([…]), 5.0 mg Ritanserin ? or received placebo (▴).
In this study, we examined the efficacy of ritanserin on alcohol consumption in a 12-week, outpatient, placebo-controlled clinical trial. This study overlapped in time and recruitment effort with the ondansetron study described above. Therefore, our research group has the expertise to conduct multiple treatment studies simultaneously. Fifty-four patients from our center who met DSM III-R criteria for alcoholism participated and were randomized to receive placebo, 2.5 mg, or 5 mg of ritanserin. All patients received standardized manual driven Cognitive Behavioral Therapy for alcoholism. Cognitive Behavioral Therapy was conducted by counselors with extensive experience with behavioral treatments, and over 500 therapy hours were logged. […] There was no within time effect nor group interaction. Similarly, there was no difference in craving between the treatment groups.

[7] = tested on: alcohol-dependent men and women; details: topiramate up to 300 mg per day, 12 weeks; cited from earlier work
[8] = tested on: individuals who take topiramate; details: cited from earlier work
[9] = EOA, ondansetron 1 μg/kg b.i.d, p<0.05
[10] = EOA, ondansetron 4 μg/kg b.i.d, p<0.05
[11] = N=321, 88 received the 4 μg/kg dose

Structure (SMILES): O=C1CC[C@@]2(O)[C@H]3Cc4ccc(O)c5c4[C@@]2(CCN3CC2CC2)[C@H]1O5 [naltrexone, 17-(Cyclopropylmethyl)-4,5 a-epoxy-3,14-dihydroxymorphinan-6-one hydrochloride]
- nicotine withdrawal symptoms [1]: No patient reported clinically significant nicotine withdrawal symptoms
- alcohol consumption ([1]; before 3.29±2.16 drinks/day, p<0.05): 2.16±1.88 drinks/day
- smoking ([1]; before 21.10±5.57 cigarettes/day): 15.93±3.09 cigarette/day
- alcohol consumption [2]: dose-dependent decreases
- alcohol consumption, change from baseline ([3]; naltrexone alone, 1 mg/kg intraperitoneally): did not affect alcohol consumption on its own
- rate of subject withdrawal due to naltrexone induced nausea ([4]; Croop and Colleagues, 570 received naltrexone): 15%
- individuals unable to tolerate naltrexone ([4]; naltrexone dose of 50 mg/day): about 15%

Structure (SMILES): Cc1nccn1CC1CCc2c(c3ccccc3n2C)C1=O (stereo not shown) [ondansetron, 9-methyl-3-[(2-methyl-1H-imidazol-1-yl)methyl]-1,2,3,9-tetrahydrocarbazol-4-one]
- drinking (EOA and LOA alcoholics): significant reductions in drinking
- Drinks/Day (alcoholics (EOA and LOA); [9]): 1.89
- Drinks/Drinking Day (alcoholics (EOA and LOA); [9]): 4.75
- mean log CDT ratio between endpoint and enrollment (alcoholics (EOA and LOA); EOA, ondansetron 1 μg/kg b.i.d, placebo +0.11, p<0.05): −0.17
- Drinks/Day (alcoholics (EOA and LOA); [10]): 1.56
- Drinks/Drinking Day (alcoholics (EOA and LOA); [10]): 4.28
- Drinking outcomes in LOA (alcoholics (EOA and LOA); LOA): not improved substantially
- nausea (alcoholics (EOA and LOA); [11]): nausea was not reported
- side-effects vs. placebo (alcoholics (EOA and LOA); [11]): no side-effect was reported more often than placebo
- Total Days Abstinent/study week (alcoholics (EOA and LOA); ondansetron 4 μg/kg b.i.d, placebo 5.92, p<0.05): 6.74
- Percent Days Abstinent (alcoholics (EOA and LOA); ondansetron 4 μg/kg b.i.d, placebo 50.20, p<0.05): 70.10
- alcohol consumption ([5]; ondansetron alone 0.001 mg/kg intraperitoneally (FIG. 10B)): did not affect alcohol consumption on its own

Structure (SMILES): Cc1nc2sccn2c(=O)c1CCN1CCC(=C(c2ccc(F)cc2)c2ccc(F)cc2)CC1 [ritanserin]
- alcohol consumption [6]: no clinically significant effect
- craving [6]: no clinically significant effect

Structure (SMILES): CC1(C)O[C@@H]2[C@@H](CO[C@@]3(COS(N)(=O)=O)OC(C)(C)O[C@@H]23)O1 [topiramate, 2,3:4,5-Bis-O-(1-methylethylidene)-beta-D-fructopyranose sulfamate]
- craving vs. placebo [7]: significantly less craving
- days of abstinence vs. placebo [7]: significantly more days of abstinence
- drinks per day, drinking days, drinks per drinking day vs. placebo [7]: significantly fewer drinks per day, drinking days, and drinks per drinking day
- cognitive impairment, reported rate ([8]; general population): 2.4%
- cognitive impairment, occurrence rate ([8]; substance abuse field): about 18.7%
- alcohol consumption, change from baseline ([3]; topiramate alone, 10 mg/kg intraperitoneally, effect not yet significant): only modestly decreased alcohol consumption
- decrease in alcohol consumption from baseline ([5]; topiramate alone 10 mg/kg intraperitoneally (FIG. 10A)): 12%±8%
